Data set [1] in a line: Neurotoxicity against ip dosed Mus musculus Kunming (mouse) assessed as inability to maintain equilibrium on rod measured for 1 min by rota rod test. In kind it is toxicity, organism-based. To be noted: in vivo.
In data set [2] the test system is Mus musculus. Briefly: Anticonvulsant activity in ip dosed Mus musculus Kunming (mouse) assessed as protection against maximal electroshock-induced seizure administered 30 min prior to testing. In kind it is functional. (In general: Protection in the maximal electroshock model is a classic sign of anticonvulsant action.)
Data set [3] deals with Mus musculus. Put plainly: Anticonvulsant activity in Mus musculus Kunming (mouse) assessed as protection against maximal electroshock-induced seizure at 100 mg/kg, ip administered 30 min prior to testing. Format: functional, organism-based. More on the design: dose 100 mg/kg.
Data set [4] can be described thus: Protective index, ratio of TD50 for neurotoxicity to ED50 for anticonvulsant activity in Mus musculus Kunming (mouse). In kind it is toxicity, organism-based. To be noted: in vivo, read-out: Ratio TD50/ED50.

The source made the active and inactive calls. The rule behind the calls is not given here.

Turning to `NC(=O)N1c2ccccc2C=Cc2ccccc21` [CARBAMAZEPINE], the TD50 at 1 min in data set [1] was 76.1 mg/kg. For the same compound, the ED50 in data set [2] was found to be 11.8 mg/kg.
Turning to `N#Cc1ccc(COc2cccc3c2cnc2ncnn23)cc1`, the outcome in data set [3] was inactive.
Same read-out and setting: the same measure for `Clc1ccccc1COc1cccc2c1cnc1ncnn12`: “inactive”.
In the case of `N#Cc1ccccc1COc1cccc2c1cnc1ncnn12`, the result in data set [3] was inactive.
On the same count and under the same terms, the same measure for `Brc1ccccc1COc1cccc2c1cnc1ncnn12`: “inactive”.
On the same count and under the same terms, next, `CCCCCCCCCCOc1cccc2c1cnc1ncnn12`: “inactive”; `Clc1ccc(COc2cccc3c2cnc2ncnn23)cc1`: “inactive”.
Turning to `c1ccc(COc2cccc3c2cnc2ncnn23)cc1`, in data set [4], the selectivity ratio stood at 9. Moreover, the TD50 at 1 min in data set [1] was 710 mg/kg. Further, the ED50 in data set [2] was found to be 78.9 mg/kg. Further, the result in data set [3] was Active.
Regarding `Cc1ccc(COc2cccc3c2cnc2ncnn23)cc1`, the outcome in data set [3] was inactive.
With `CCCCCOc1cccc2c1cnc1ncnn12`, in data set [3], the result was Active.
As for `CCCCCCCOc1cccc2c1cnc1ncnn12`, the result in data set [3] was inactive.
With `CCCCCCCCOc1cccc2c1cnc1ncnn12`, in data set [3], the outcome was inactive.
Consider `Clc1ccc(COc2cccc3c2cnc2ncnn23)c(Cl)c1`, for which the outcome in data set [3] was inactive.
As for `CCCCOc1cccc2c1cnc1ncnn12`, the result in data set [3] was inactive.
`Fc1cccc(COc2cccc3c2cnc2ncnn23)c1`: the result in data set [3] was inactive.
For the compound `COc1ccc(COc2cccc3c2cnc2ncnn23)cc1`, in data set [3], the result was inactive.
For the compound `Fc1ccccc1COc1cccc2c1cnc1ncnn12`, the result in data set [3] was inactive.
Take `CCCCCCOc1cccc2c1cnc1ncnn12`: the outcome in data set [3] was inactive.
Still for that read-out and setting: next, `Clc1cccc(COc2cccc3c2cnc2ncnn23)c1`: “inactive”.
The same measure, in the same setting: the same measure for `Fc1ccc(COc2cccc3c2cnc2ncnn23)cc1`: “inactive”.

One may read the TD50 as the 50% point of the dose-response relation for the toxic effect studied. As usually defined, the ED50 is the dose that gives a 50% effect, or the effect in half of the subjects.

(Values after ChEMBL document CHEMBL3045370, “Design and synthesis of 6-alkyoxyl[1,2,4]triazolo[1,5-a]quinazoline derivatives with anticonvulsant activity” (Med Chem Res, 2012).)
